Measurements published in patent US11759455B2, “Substituted 1H-imidazo[4,5-b]pyridin-2(3H)-ones and their use as GLUN2B receptor modulators” (JANSSEN PHARMACEUTICA NV, priority 2016, dated 2023).
Like-named read-outs stand apart in the source and are kept apart here.

Biological target: T1, human GluN1/GluN2B NMDA receptors (Homo sapiens, UniProt Q13224)
T1 construct: expressed in transfected cells
Assay: Cell-based calcium flux (FLIPR) assay on cloned human NR1/NR2B ion channels expressed in mammalian cells (standard and HTS buffer variants);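 further: stable Tet-On inducible cell line, Ca2+ influx triggered by glutamate at about EC40 plus 10 µM glycine, fluorescent dye read-out over 5 min, normalized to control wells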

[1] = standard assay buffer (0.5 mM MgCl2 dye loading; 137 mM NaCl, 4 mM KCl assay buffer), human GluN1/GluN2B cells, read-out: NR2B IC50 (μM) standard assay
[2] = standard assay buffer (0.5 mM MgCl2 in dye loading buffer; 137 mM NaCl, 4 mM KCl in assay buffer), human GluN1/GluN2B, read-out: NR2B IC50 (μM) standard assay
[3] = HTS assay buffer (1.5 mM MgCl2 in dye loading buffer; 150 mM NaCl, 3 mM KCl in assay buffer), human GluN1/GluN2B, read-out: NR2B IC50 (μM) HTS assay

T1 sequence (Q13224 27-1484, other chains not shown): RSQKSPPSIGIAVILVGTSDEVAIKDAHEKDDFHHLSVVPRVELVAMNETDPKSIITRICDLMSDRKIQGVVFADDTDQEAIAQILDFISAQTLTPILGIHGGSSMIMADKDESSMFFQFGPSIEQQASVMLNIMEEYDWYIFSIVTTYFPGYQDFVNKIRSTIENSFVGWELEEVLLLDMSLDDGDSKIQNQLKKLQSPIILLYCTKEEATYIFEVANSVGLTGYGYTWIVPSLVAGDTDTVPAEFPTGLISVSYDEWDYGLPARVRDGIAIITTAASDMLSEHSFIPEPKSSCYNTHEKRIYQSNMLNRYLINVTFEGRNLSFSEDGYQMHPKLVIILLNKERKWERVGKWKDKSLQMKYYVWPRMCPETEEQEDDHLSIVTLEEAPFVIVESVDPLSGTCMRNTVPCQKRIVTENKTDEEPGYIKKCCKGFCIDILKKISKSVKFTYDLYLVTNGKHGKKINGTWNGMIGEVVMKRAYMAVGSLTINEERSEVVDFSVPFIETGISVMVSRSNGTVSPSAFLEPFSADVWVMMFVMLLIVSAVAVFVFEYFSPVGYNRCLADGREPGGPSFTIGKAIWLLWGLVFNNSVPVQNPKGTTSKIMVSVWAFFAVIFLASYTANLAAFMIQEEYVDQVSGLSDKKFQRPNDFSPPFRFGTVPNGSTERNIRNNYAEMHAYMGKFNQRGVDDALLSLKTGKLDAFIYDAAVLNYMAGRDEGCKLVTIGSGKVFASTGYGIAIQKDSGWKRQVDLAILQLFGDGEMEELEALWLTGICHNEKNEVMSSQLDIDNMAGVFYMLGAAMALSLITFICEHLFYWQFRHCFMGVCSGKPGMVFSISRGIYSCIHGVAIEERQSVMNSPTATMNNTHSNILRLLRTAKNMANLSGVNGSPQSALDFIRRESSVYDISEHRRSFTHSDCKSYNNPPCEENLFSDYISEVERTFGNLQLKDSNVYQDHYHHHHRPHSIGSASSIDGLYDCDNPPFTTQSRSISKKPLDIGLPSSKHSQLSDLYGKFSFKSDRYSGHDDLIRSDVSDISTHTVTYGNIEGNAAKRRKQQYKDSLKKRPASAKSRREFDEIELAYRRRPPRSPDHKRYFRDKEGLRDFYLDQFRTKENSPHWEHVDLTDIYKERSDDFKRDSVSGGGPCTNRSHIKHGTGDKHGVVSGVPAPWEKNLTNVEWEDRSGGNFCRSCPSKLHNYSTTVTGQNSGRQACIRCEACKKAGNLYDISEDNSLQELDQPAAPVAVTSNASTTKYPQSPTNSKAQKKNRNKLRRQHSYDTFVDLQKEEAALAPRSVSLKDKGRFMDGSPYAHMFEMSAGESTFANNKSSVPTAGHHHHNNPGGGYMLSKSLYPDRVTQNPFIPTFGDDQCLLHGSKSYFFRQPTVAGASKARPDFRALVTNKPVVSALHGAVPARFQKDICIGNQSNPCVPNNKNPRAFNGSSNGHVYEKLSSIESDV

IC50 [1]	IC50 [2]	Structure (SMILES)	further results
0.022 µM	–	O=c1[nH]c2ncc(-c3cccc(C(F)F)c3)cc2n1Cc1cncc(F)c1 [Example 302, 6-[3-(Difluoromethyl)phenyl]-1-[(5-fluoro-3-pyridyl)methyl]-3H-imidazo[4,5-b]pyridin-2-one]	–
–	0.049 µM	Cn1c(=O)n(Cc2cccnc2)c2cc(-c3cccc(C(F)(F)F)c3F)cnc21 [Example 358, 6-[2-Fluoro-3-(trifluoromethyl)phenyl]-3-methyl-1-(3-pyridylmethyl)imidazo[4,5-b]pyridin-2-one]	–
2 µM	–	Cn1c(=O)n(Cc2ccncc2)c2cc(-c3cccc(C(F)(F)F)c3)cnc21 [Example 250, 3-Methyl-1-(4-pyridylmethyl)-6-[3-(trifluoromethyl)phenyl]imidazo[4,5-b]pyridin-2-one]	–
0.479 µM	–	O=c1[nH]c2ncc(-c3cccc(C(F)(F)F)c3)cc2n1Cc1cccc(F)c1 [Example 222, 1-[(3-Fluorophenyl)methyl]-6-[3-(trifluoromethyl)phenyl]-3H-imidazo[4,5-b]pyridin-2-one]	–
0.15 µM	–	Cc1cncc(Cn2c(=O)[nH]c3ncc(-c4cccc(C(F)(F)F)c4)cc32)c1 [Example 242, 1-[(5-Methyl-3-pyridyl)methyl]-6-[3-(trifluoromethyl)phenyl]-3H-imidazo[4,5-b]pyridin-2-one]	–
–	0.216 µM	Cc1cc(Cn2c(=O)n(C)c3ncc(-c4ccc(C)s4)cc32)no1 [Example 558, 3-Methyl-1-[(5-methylisoxazol-3-yl)methyl]-6-(5-methyl-2-thienyl)imidazo[4,5-b]pyridin-2-one]	–
7.08 µM	–	Cc1ccc(-c2cnc3[nH]c(=O)n(Cc4ccccn4)c3c2)cc1 [Example 289, 6-(p-Tolyl)-1-(2-pyridylmethyl)-3H-imidazo[4,5-b]pyridin-2-one]	–
–	2.09 µM	CCOc1ccccc1-c1cnc2[nH]c(=O)n(Cc3cccc(OC)c3)c2c1 [Example 605, 6-(2-Ethoxyphenyl)-1-[(3-methoxyphenyl)methyl]-3H-imidazo[4,5-b]pyridin-2-one]	–
–	0.046 µM	Cc1c(F)ccc(-c2cnc3c(c2)n(Cc2cn(C)nn2)c(=O)n3C)c1F [Example 574, 6-(2,4-Difluoro-3-methyl-phenyl)-3-methyl-1-[(1-methyltriazol-4-yl)methyl]imidazo[4,5-b]pyridin-2-one]	–
–	0.025 µM	Cn1c(=O)n(CC(=O)N2CC(F)(F)C2)c2cc(-c3ccc(F)c(OC(F)F)c3)cnc21 [Example 590, 1-[2-(3,3-Difluoroazetidin-1-yl)-2-oxo-ethyl]-6-[3-(difluoromethoxy)-4-fluoro-phenyl]-3-methyl-imidazo[4,5-b]pyridin-2-one]	–
0.756 µM	–	COC1CN(CCn2c(=O)[nH]c3ncc(-c4cccc(C(F)(F)F)c4)cc32)C1 [Example 149, 1-[2-(3-Methoxyazetidin-1-yl)ethyl]-6-[3-(trifluoromethyl)phenyl]-3H-imidazo[4,5-b]pyridin-2-one]	–
–	0.024 µM	Cn1c(=O)n(Cc2cncc(F)c2)c2cc(-c3ccc(F)c(C(F)F)c3)cnc21 [Example 546, 6-[3-(Difluoromethyl)-4-fluoro-phenyl]-1-[(5-fluoro-3-pyridyl)methyl]-3-methyl-imidazo[4,5-b]pyridin-2-one]	–
2.21 µM	–	Cn1c(=O)n(Cc2ccncn2)c2cc(-c3ccc(F)c(F)c3)cnc21 [Example 70, 6-(3,4-Difluorophenyl)-3-methyl-1-(pyrimidin-4-ylmethyl)imidazo[4,5-b]pyridin-2-one]	–
0.043 µM	–	O=c1[nH]c2ncc(-c3cccc(C(F)(F)F)c3)cc2n1Cc1cncnc1 [Example 255, 1-(Pyrimidin-5-ylmethyl)-6-[3-(trifluoromethyl)phenyl]-3H-imidazo[4,5-b]pyridin-2-one]	–
–	0.033 µM	Cc1cccc(-c2cnc3c(c2)n(Cc2cccnn2)c(=O)n3C)c1 [Example 379, 3-Methyl-6-(m-tolyl)-1-(pyridazin-3-ylmethyl)imidazo[4,5-b]pyridin-2-one]	–
0.6 µM	–	Cc1cc(-c2cnc3c(c2)n(Cc2ccncc2)c(=O)n3C)ccc1F [Example 46, 6-(4-Fluoro-3-methyl-phenyl)-3-methyl-1-(4-pyridylmethyl)imidazo[4,5-b]pyridin-2-one]	–
–	0.042 µM	Cn1c(=O)n(CC(=O)N2CC(F)C2)c2cc(-c3ccc(F)c(F)c3)cnc21 [Example 403, 6-(3,4-Difluorophenyl)-1-[2-(3-fluoroazetidin-1-yl)-2-oxo-ethyl]-3-methyl-imidazo[4,5-b]pyridin-2-one]	–
–	0.052 µM	Cc1cccc(-c2cnc3c(c2)n(Cc2cncc(F)c2)c(=O)n3C)c1F [Example 352, 6-(2-Fluoro-3-methyl-phenyl)-1-[(5-fluoro-3-pyridyl)methyl]-3-methyl-imidazo[4,5-b]pyridin-2-one]	–
0.009 µM	–	Cc1ccncc1Cn1c(=O)[nH]c2ncc(-c3ccc(F)c(F)c3)cc21 [Example 275, 6-(3,4-Difluorophenyl)-1-[(4-methyl-3-pyridyl)methyl]-3H-imidazo[4,5-b]pyridin-2-one]	–
0.066 µM	–	O=c1[nH]c2ncc(-c3cccc(C(F)(F)F)c3)cc2n1Cc1cnccn1 [Example 253, 1-(Pyrazin-2-ylmethyl)-6-[3-(trifluoromethyl)phenyl]-3H-imidazo[4,5-b]pyridin-2-one]	–
5.36 µM	–	Cc1ncc(-c2cnc3c(c2)n(CC(=O)N2CC(F)C2)c(=O)n3C)s1 [Example 113, 1-[2-(3-Fluoroazetidin-1-yl)-2-oxo-ethyl]-3-methyl-6-(2-methylthiazol-5-yl)imidazo[4,5-b]pyridin-2-one]	–

More lines, now with the values behind:

Structure (SMILES)	IC50 [1]	IC50 [2]	further results
Cc1cc(C)cc(-c2cnc3[nH]c(=O)n(CC(=O)NC4CC4)c3c2)c1 [Example 39, N-Cyclopropyl-2-[6-(3,5-dimethylphenyl)-2-oxo-3H-imidazo[4,5-b]pyridin-1-yl]acetamide]	–	–	IC50 (HTS assay buffer (1.5 mM MgCl2 dye loading; 150 mM NaCl, 3 mM KCl assay buffer), human GluN1/GluN2B cells, read-out: NR2B IC50 (μM) HTS assay): 1.03 µM
Cc1cc(-c2cnc3[nH]c(=O)n(CC(=O)N4CCC4)c3c2)sc1Cl [Example 324, 1-[2-(Azetidin-1-yl)-2-oxo-ethyl]-6-(5-chloro-4-methyl-2-thienyl)-3H-imidazo[4,5-b]pyridin-2-one]	–	0.015 µM	–
COc1cc(F)ccc1-c1cnc2[nH]c(=O)n(Cc3ccc(F)cc3)c2c1 [Example 501, 6-(4-Fluoro-2-methoxy-phenyl)-1-[(4-fluorophenyl)methyl]-3H-imidazo[4,5-b]pyridin-2-one]	–	–	IC50 [3]: 0.79 µM
O=c1[nH]c2ncc(-c3cccc(F)c3F)cc2n1Cc1cncc(F)c1 [Example 303, 6-(2,3-Difluorophenyl)-1-[(5-fluoro-3-pyridyl)methyl]-3H-imidazo[4,5-b]pyridin-2-one]	0.03 µM	–	–
Cc1csc(-c2cnc3c(c2)n(CC(=O)N(C)C)c(=O)n3C)c1 [Example 80, N,N-Dimethyl-2-[3-methyl-6-(4-methyl-2-thienyl)-2-oxo-imidazo[4,5-b]pyridin-1-yl]acetamide]	0.03 µM	–	–
COc1ccc(-c2cnc3[nH]c(=O)n(Cc4cc(C)on4)c3c2)c(OC)c1 [Example 518, 6-(2,4-Dimethoxyphenyl)-1-[(5-methylisoxazol-3-yl)methyl]-3H-imidazo[4,5-b]pyridin-2-one]	–	0.808 µM	–
CCOc1ccccc1-c1cnc2[nH]c(=O)n(Cc3ccccc3F)c2c1 [Example 503, 6-(2-Ethoxyphenyl)-1-[(2-fluorophenyl)methyl]-3H-imidazo[4,5-b]pyridin-2-one]	–	–	IC50 [3]: 5.49 µM
COc1cccc(-c2cnc3[nH]c(=O)n(Cc4ccc(F)cc4)c3c2)c1OC [Example 493, 6-(2,3-Dimethoxyphenyl)-1-[(4-fluorophenyl)methyl]-3H-imidazo[4,5-b]pyridin-2-one]	–	–	IC50 [3]: 1.01 µM
CCOc1ccccc1-c1cnc2[nH]c(=O)n(Cc3ccccc3C#N)c2c1 [Example 484, 2-[[6-(2-Ethoxyphenyl)-2-oxo-3H-imidazo[4,5-b]pyridin-1-yl]methyl]benzonitrile]	–	1.39 µM	–
COc1cc(F)ccc1-c1cnc2[nH]c(=O)n(CC(=O)NC3CC3)c2c1 [Example 452, N-Cyclopropyl-2-[6-(4-fluoro-2-methoxy-phenyl)-2-oxo-3H-imidazo[4,5-b]pyridin-1-yl]acetamide]	–	–	IC50 [3]: 0.071 µM
CCC(=O)Cn1c(=O)[nH]c2ncc(-c3ccc(F)c(F)c3)cc21 [Example 330, 6-(3,4-Difluorophenyl)-1-(2-oxobutyl)-3H-imidazo[4,5-b]pyridin-2-one]	–	0.004 µM	–
Cn1c(=O)n(CC(=O)N2CC(F)C2)c2cc(-c3csc(C(F)(F)F)n3)cnc21 [Example 109, 1-[2-(3-Fluoroazetidin-1-yl)-2-oxo-ethyl]-3-methyl-6-[2-(trifluoromethyl)thiazol-4-yl]imidazo[4,5-b]pyridin-2-one]	0.04 µM	–	–
CNC(=O)Cn1c(=O)[nH]c2ncc(-c3cc(C)cc(C)c3)cc21 [Example 438, 2-[6-(3,5-Dimethylphenyl)-2-oxo-3H-imidazo[4,5-b]pyridin-1-yl]-N-methyl-acetamide]	–	–	IC50 [3]: 0.394 µM
O=c1[nH]c2ncc(-c3cccs3)cc2n1CC1CC1 [Example 472, 1-(Cyclopropylmethyl)-6-(2-thienyl)-3H-imidazo[4,5-b]pyridin-2-one]	–	1.56 µM	–
COc1cc(Cn2c(=O)[nH]c3ncc(-c4cccc(C(F)(F)F)c4)cc32)cc(OC)c1 [Example 510, 1-[(3,5-Dimethoxyphenyl)methyl]-6-[3-(trifluoromethyl)phenyl]-3H-imidazo[4,5-b]pyridin-2-one]	–	–	IC50 [3]: 17.4 µM
Cc1ccccc1-c1cnc2[nH]c(=O)n(CCN3CCC3)c2c1 [Example 152, 1-[2-(Azetidin-1-yl)ethyl]-6-(o-tolyl)-3H-imidazo[4,5-b]pyridin-2-one]	0.127 µM	–	–
Cc1ccncc1Cn1c(=O)[nH]c2ncc(-c3ccc(F)c(C)c3F)cc21 [Example 278, 6-(2,4-Difluoro-3-methyl-phenyl)-1-[(4-methyl-3-pyridyl)methyl]-3H-imidazo[4,5-b]pyridin-2-one]	0.111 µM	–	–
